Reference: ChEMBL document CHEMBL1134722, “Selective, orally active MMP inhibitors with an aryl backbone” (Bioorg Med Chem Lett, 2001)

Assays:
[1] = molecular target: 72 kDa type IV collagenase (Homo sapiens) (UniProt P08253); assay: Inhibitory concentration against Matrix metalloprotease-2
[2] = molecular target: T1, Interstitial collagenase (Homo sapiens) (UniProt P03956); assay: Inhibitory activity against human Matrix metalloprotease-1
T1 sequence (whole entry): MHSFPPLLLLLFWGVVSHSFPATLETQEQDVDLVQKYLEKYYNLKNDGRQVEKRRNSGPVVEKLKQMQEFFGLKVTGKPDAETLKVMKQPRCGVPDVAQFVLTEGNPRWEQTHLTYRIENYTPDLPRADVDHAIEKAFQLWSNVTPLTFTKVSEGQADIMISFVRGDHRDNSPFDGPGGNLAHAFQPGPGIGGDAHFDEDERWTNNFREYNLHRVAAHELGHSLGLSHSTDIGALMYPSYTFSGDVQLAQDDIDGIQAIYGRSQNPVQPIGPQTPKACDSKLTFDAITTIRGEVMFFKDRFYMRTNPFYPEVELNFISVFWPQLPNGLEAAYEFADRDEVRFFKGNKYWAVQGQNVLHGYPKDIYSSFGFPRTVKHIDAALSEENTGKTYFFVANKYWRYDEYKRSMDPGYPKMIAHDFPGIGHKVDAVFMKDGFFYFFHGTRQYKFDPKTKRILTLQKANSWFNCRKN

[3] = Cmax after oral administration at 20 mpk in rats; format: ADME, organism-based; design: dose 20 mpk, route oral; conditions: rat, in vivo, 20 mg/kg
[4] = Half life period after intravenous administration at 20 mpk in rats; format: ADME, organism-based; conditions: rat, in vivo, 20 mg/kg
[5] = Oral bioavailability in rat; format: ADME, organism-based; conditions: in vivo, read-out: BA

Chain of 72 kDa type IV collagenase (Homo sapiens) (P08253 110-660 limits assumed): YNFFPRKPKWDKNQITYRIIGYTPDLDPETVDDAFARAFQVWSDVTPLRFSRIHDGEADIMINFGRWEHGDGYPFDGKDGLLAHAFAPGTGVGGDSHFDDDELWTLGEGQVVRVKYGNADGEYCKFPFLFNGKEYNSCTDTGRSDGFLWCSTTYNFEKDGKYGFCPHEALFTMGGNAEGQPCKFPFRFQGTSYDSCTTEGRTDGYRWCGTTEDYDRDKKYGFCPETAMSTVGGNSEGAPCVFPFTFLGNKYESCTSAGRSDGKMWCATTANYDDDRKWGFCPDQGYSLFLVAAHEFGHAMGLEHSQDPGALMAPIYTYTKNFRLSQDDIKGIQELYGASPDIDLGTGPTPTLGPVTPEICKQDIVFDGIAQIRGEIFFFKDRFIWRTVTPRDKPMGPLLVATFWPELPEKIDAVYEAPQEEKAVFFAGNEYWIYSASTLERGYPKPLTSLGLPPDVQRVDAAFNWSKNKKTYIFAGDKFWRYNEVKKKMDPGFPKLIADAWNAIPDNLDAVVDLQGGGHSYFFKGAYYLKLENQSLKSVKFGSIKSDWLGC

Structure (SMILES)	Activity [1]	Activity [2]	Cmax [3]	half-life [4]	bioavailability [5]
COc1ccc(OC)c(S(=O)(=O)N2CCC(Oc3ccc(C(F)(F)F)cc3)CC2)c1C(=O)NO	21 nM	> 10 µM			
O=C(NO)C1(CS(=O)(=O)c2ccc(Oc3ccc(Cl)cc3)cc2)CCOCC1 [CTS-1027]	0.4 nM	0.8 µM	1370 ng/mL	1.5 h	22%
CC1(C)SCCN(S(=O)(=O)c2ccc(Oc3ccncc3)cc2)[C@H]1C(=O)NO [PRINOMASTAT]			2060 ng/mL	1.6 h	28%
O=C(NO)c1c(S(=O)(=O)N2CCC(Oc3ccc(C(F)(F)F)cc3)CC2)ccc2c1OCCO2	1.4 nM	> 10 µM	3200 ng/mL		
O=C(NO)c1c(Cl)cccc1S(=O)(=O)N1CCC(Oc2ccc(C(F)(F)F)cc2)CC1	1.9 nM	> 10 µM	1310 ng/mL		
COc1ccc(S(=O)(=O)N2CCC(Oc3ccc(OC(F)(F)F)cc3)CC2)c(C(=O)NO)c1OC	0.8 nM	> 10 µM	5160 ng/mL	1.5 h	31%
COc1ccc(S(=O)(=O)N2CCC(OCc3ccc4c(c3)OCO4)CC2)c(C(=O)NO)c1OC	1 nM	> 10 µM	9200 ng/mL		
COc1ccc(S(=O)(=O)N2CCC(Oc3ccccc3)CC2)c(C(=O)NO)c1OC	1.1 nM	> 10 µM			
O=C(NO)c1c(S(=O)(=O)N2CCC(OCc3ccc4c(c3)OCO4)CC2)ccc2c1OCO2	1.1 nM	> 10 µM			
O=C(NO)c1ccccc1S(=O)(=O)N1CCC(Oc2ccc(OC(F)(F)F)cc2)CC1	2.2 nM	> 10 µM	670 ng/mL		39%
COc1ccccc1OC1CCN(S(=O)(=O)c2ccc(OC)c(OC)c2C(=O)NO)CC1	330 nM	> 10 µM			
O=C(NO)c1c(OC2CCOCC2)cccc1S(=O)(=O)N1CCC(Oc2ccc(C(F)(F)F)cc2)CC1	1.1 nM	> 10 µM			
O=C(NO)c1ccccc1S(=O)(=O)N1CCC(Oc2ccc(C(F)(F)F)cc2)CC1		> 10 µM	1230 ng/mL	0.8 h	23%
CNC(=O)[C@@H](NC(=O)C(CC(C)C)C(O)C(=O)NO)C(C)(C)C (single isomer, unassigned)			2400 ng/mL	0.9 h	9%
O=C(NO)c1c(F)cccc1S(=O)(=O)N1CCC(Oc2ccc(C(F)(F)F)cc2)CC1	3.3 nM	> 10 µM			
O=C(NO)c1c(S(=O)(=O)N2CCC(Oc3ccc(C(F)(F)F)cc3)CC2)ccc2c1OCO2	3 nM	> 10 µM	3060 ng/mL		
COc1cccc(OC2CCN(S(=O)(=O)c3ccc(OC)c(OC)c3C(=O)NO)CC2)c1	12 nM	> 10 µM			
COc1ccc(S(=O)(=O)N2CCC(Oc3ccc(C(F)(F)F)cc3)CC2)c(C(=O)NO)c1OC	2.4 nM	> 10 µM	22500 ng/mL	1.9 h	32%
COc1ccc(S(=O)(=O)N2CCC(Oc3ccc(Cl)cc3)CC2)c(C(=O)NO)c1OC	0.3 nM	> 10 µM			
COCCOc1cccc(S(=O)(=O)N2CCC(Oc3ccc(C(F)(F)F)cc3)CC2)c1C(=O)NO	1 nM	> 10 µM	2670 ng/mL		
COc1ccc(OC2CCN(S(=O)(=O)c3ccc(OC)c(OC)c3C(=O)NO)CC2)cc1	1.8 nM	> 10 µM			
